Assays:
[1] = reported by Mikhlina et al; cited from earlier work
[2] = test system: gastric emptying of a test meal; test: Effect on Gastric Emptying of a Test Meal in Rats; type: in vivo; details: rat

Nc1ccc(C(=O)NC2CN3CCC2CC3)cc1 (centres unmarked) [4-amino-N-(1-azabicyclo[2.2.2]oct-3-yl)-benzamide]
reported activities [1]: hypotensive, narcotic and ganglionic stimulation and blocking activities

Cc1nc(COc2cc(N)c(Cl)cc2C(=O)N[C@H]2CN3CCC2CC3)cs1 [Example I (R)-isomer, (R)-(+)-4-Amino-N-(1-azabicyclo[2,2,2]oct-3-yl)-5-chloro-2-[(2-methyl-4-thiazolyl)methoxy]benzamide]
Gastric emptying: % change in meal emptied ([2]; 9.0 mg/kg IP): 34%

Cc1nc(COc2cc(N)c(Cl)cc2C(=O)N[C@@H]2CN3CCC2CC3)cs1 [Example I (S)-isomer, S-(-)-4-Amino-N-(1-azabicyclo[2,2,2]oct-3-yl)-5-chloro-2-[(2-methyl-4-thiazolyl)methoxy]benzamide]
Gastric emptying: % change in meal emptied ([2]; 9.0 mg/kg IP): 43%

Cc1nc(COc2cc(N)c(Cl)cc2C(=O)NC2CN3CCC2CC3)cs1 (centres unmarked) [Example I, 4-Amino-N-(1-azabicyclo[2,2,2]oct-3-yl)-5-chloro-2-[(2-methylthiazol-4-yl)methoxy]benzamide]
Gastric emptying: % change in meal emptied ([2]; 9.0 mg/kg IP): 36%

Nc1cc(OCc2ccccc2)c(C(=O)NC2CN3CCC2CC3)cc1Cl (centres unmarked) [Example V, 4-Amino-N-(1-azabicyclo[2.2.2]oct-3-yl)-5-chloro-2-(phenylmethoxy)benzamide]
Gastric emptying: % change in meal emptied ([2]; 1.0 mg/kg IP): 61%

Nc1cc(OCc2cccc(Cl)c2)c(C(=O)NC2CN3CCC2CC3)cc1Cl (centres unmarked) [Example VI, 4-Amino-N-(1-azabicyclo[2.2.2]oct-3-yl)-5-chloro-2-[(3-chlorophenyl)methoxy]benzamide]
Gastric emptying: % change in meal emptied ([2]; 1.0 mg/kg IP): 52%

Nc1cc(OCc2cccc(I)c2)c(C(=O)NC2CN3CCC2CC3)cc1Cl (centres unmarked) [Example VII, 4-Amino-N-(1-azabicyclo[2.2.2]oct-3-yl)-5-chloro-2-[(3-iodophenyl)methoxy]benzamide]
Gastric emptying: % change in meal emptied ([2]; 0.10 mg/kg IP): 28%

O=C(NC1CN2CCC1CC2)c1ccccc1 (centres unmarked) [N-(1-azabicyclo[2.2.2]oct-3-yl)benzamide]
reported activities [1]: hypotensive, narcotic and ganglionic stimulation and blocking activities
